Where two headings read alike, the source gives them in different places.

As a reminder, the mortality is the share of the test organisms that died.

One series has as its system Cotton Aphids. The experiment in a line: Efficacy on cotton aphids (spray on 1st instar nymphs on cucumber leaves). In kind it is in vivo. The note with it: 125 ppm spray, 25° C., 65% RH, five days later, duplicate.
Series [1] has as its system susceptible Citrus red mite. Briefly: Effects on Citrus red mite (spray on adult females on Citrus leaf in Petri dish). The following applies: Panonychus citri, read-out: percentage mortality. In kind it is in vivo. Here is the method:
Eight adult females of susceptible Citrus red mite were inoculated on the surface of Citrus leaf placed in a glass Petridish. […] The solution was sprayed on the mites using a rotary spraying tower up to the fixed volume. […] The test was carried out in duplicate.

As for `Cc1nc(N(C)C)nc(OC(=O)N(C)C)c1C` [pyrimicarb], the percentage mortality with Cotton Aphids turned out to be 9%.

`Cn1nc(C(F)(F)F)c(C(OC(=O)C(C)(C)C)=C(C#N)Oc2ccc(Cl)cc2)c1Cl` [Compound No. 3-9, β-(5-chloro-1-methyl-3-trifluoromethylpyrazole-4-yl)-α-(4-chlorophenoxy)-β-pivaloyloxyacrylonitrile]: the mortality at 125 ppm in the series on Cotton Aphids (120 h, read-out: percentage mortality) came to 100%; in series [1] (125 ppm spray (wettable powder), adult females on Citrus leaf, 25° C., 65% RH, third day after spraying, duplicate), 100%.

For `Cc1cc(Cl)ccc1N=CN(C)C` [chlordimeform], in series [1], the mortality at 125 ppm came out at 13%.

Values taken from US6987112B2, “Organic compound having cyano group and insecticides/miticides” (Nippon Soda Co., Ltd., priority 2000, dated 2006).
